# Experimental data published in paper PMC3601769 (Bioorganic & medicinal chemistry letters, 2013).
# System: tubulin (colchicine site)
# Assay: Inhibition of colchicine binding to tubulin
row,Structure (SMILES),Inhibition of colchicine binding (% inhibition ± SD) at 5 μM inhibitor
1,CCOC(=O)c1cccc(Nc2nc(-c3ccc(OC)cc3)no2)c1 [DCP 10500035],inactive
2,Fc1ccccc1Nc1nc(-c2ccccc2)no1 [DCP 10500060],inactive
3,COc1ccc(OC)c(Nc2nc(-c3cccc(OC)c3OC)no2)c1 [DCP 10500070],inactive
